# Reference: patent publication US20140142052A1, “PHOSPHORYLATED POLYOLS, PYROPHOSPHATES, AND DERIVATIVES THEREOF HAVING BIOLOGICAL ACTIVITY” (NormOxys, Inc., priority 2012, published 2014)
# Experiments:
# class I PI3K = assay: PI3K HTRF assay (Reaction Biology), class I PI3K; type: biochemical, human; settings: Yes = inhibition
# [1] = target: T1, hemoglobin in human whole blood (WB) (Homo sapiens, UniProt P68871+P69905); assay: Oxygen equilibrium curve (Hemox Analyzer), P50 in human whole blood; type: cell-based; settings: blood matrix WB; for P50 (Torr): incubated 1-2 h at 37° C., n=3; for P50 increase (%): versus P50 control
# T1 construct: Human whole blood was freshly withdrawn from healthy donors in heparinized microtubes; from tissue; host or cells: fresh human whole blood from healthy donors
# T1 sequence (P69905 2-142 limits assumed): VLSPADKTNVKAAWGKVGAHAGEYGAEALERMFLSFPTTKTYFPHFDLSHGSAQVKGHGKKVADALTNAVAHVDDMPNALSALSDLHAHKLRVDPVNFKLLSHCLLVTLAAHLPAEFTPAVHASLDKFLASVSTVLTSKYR
# T1 sequence (P68871 2-147 limits assumed): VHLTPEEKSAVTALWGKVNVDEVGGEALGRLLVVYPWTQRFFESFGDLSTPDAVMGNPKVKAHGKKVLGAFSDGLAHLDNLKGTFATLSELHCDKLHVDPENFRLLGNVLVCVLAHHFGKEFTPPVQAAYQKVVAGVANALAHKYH
# Method: (§1) Some of the compounds described herein were tested for P50, the partial pressure of oxygen for half-saturation, on free hemoglobin (Hb) as well as human whole blood (WB) in different concentrations.
# Human whole blood was freshly withdrawn from healthy donors in heparinized microtubes. The pH of the compound solutions was adjusted to approximately 7.0 and whole blood volumes at 1:1 ratios were incubated individually for 1-2 h at 37° C. with the above compounds. The measurement of the OEC was carried out with the Hemox Analyzer (TCS Scientific Co.) under the following conditions: pH 7.4, 135 mM NaCl, 5 mM KCl and 30 mM TES (N-[tris(hydroxymethyl)methyl]-2-aminoethanesulfonic acid) buffer at 37° C.
# Human PI3Kδ (p110δ/p85α) = target: T2, Human PI3Kδ (p110δ/p85α) (Homo sapiens, UniProt O00329); assay: PI3K HTRF assay, PI3Kδ; type: biochemical
# T2 construct: N-terminal GST tagged recombinant full-length human p110δ; GST (N); purchased Reaction Biology Corporation (RBC), Malvern, Pa; host or cells: Baculovirus infected Sf9 cells
# T2 sequence (O00329 whole entry): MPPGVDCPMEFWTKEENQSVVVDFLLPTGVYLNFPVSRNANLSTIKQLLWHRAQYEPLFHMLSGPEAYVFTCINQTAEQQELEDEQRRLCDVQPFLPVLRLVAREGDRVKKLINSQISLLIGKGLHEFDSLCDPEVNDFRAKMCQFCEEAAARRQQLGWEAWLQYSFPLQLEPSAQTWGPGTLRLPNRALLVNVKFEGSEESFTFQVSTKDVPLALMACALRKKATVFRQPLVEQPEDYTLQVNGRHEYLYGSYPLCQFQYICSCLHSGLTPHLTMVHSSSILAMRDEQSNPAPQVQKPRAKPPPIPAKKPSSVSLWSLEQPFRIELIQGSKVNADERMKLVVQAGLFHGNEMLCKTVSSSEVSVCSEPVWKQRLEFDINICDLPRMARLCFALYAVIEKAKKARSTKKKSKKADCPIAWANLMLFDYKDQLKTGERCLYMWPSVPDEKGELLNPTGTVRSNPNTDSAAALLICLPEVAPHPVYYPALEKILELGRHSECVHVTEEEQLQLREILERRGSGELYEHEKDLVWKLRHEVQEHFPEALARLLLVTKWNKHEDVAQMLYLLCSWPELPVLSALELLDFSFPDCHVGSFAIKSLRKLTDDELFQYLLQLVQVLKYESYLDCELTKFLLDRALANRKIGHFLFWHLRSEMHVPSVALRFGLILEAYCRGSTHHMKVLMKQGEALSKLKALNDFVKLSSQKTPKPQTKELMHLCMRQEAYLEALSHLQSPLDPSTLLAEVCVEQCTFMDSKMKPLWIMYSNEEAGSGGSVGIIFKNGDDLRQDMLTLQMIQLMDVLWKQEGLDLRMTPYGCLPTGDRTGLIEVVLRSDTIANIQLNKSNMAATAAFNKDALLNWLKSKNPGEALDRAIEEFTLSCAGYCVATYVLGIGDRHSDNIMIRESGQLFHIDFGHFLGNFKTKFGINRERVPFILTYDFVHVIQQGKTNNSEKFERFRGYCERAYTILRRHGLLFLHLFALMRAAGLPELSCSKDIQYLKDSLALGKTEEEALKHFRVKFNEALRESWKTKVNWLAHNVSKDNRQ
# T2 sequence (P27986 whole entry partner): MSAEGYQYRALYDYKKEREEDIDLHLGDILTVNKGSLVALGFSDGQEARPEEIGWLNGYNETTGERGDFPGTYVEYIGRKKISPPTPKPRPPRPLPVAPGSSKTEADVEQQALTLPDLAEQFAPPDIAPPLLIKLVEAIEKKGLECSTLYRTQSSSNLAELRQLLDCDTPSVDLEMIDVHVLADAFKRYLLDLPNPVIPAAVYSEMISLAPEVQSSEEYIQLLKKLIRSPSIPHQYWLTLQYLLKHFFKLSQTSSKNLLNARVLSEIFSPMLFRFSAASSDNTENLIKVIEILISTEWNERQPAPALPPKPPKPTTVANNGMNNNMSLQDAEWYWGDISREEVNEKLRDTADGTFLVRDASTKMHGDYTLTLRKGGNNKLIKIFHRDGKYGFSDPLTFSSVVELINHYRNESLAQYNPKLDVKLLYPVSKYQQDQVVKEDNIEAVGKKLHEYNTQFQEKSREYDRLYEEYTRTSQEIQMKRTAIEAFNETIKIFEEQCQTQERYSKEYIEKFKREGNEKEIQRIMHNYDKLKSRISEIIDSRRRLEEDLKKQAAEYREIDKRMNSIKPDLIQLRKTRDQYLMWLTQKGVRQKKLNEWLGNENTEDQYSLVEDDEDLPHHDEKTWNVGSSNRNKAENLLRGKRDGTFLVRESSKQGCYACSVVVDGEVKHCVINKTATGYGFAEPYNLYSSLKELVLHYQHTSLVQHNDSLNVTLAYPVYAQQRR
# Human PI3Kβ (p110β/p85α) = target: T3, Human PI3Kβ (p110β/p85α) (Homo sapiens, UniProt P42338); assay: PI3K HTRF assay, PI3Kβ; type: biochemical
# T3 construct: N-terminal 6His-tagged recombinant full-length human p110β; 6His (N); purchased Reaction Biology Corporation (RBC), Malvern, Pa; host or cells: Baculovirus infected Sf21 cells
# T3 sequence (P42338 whole entry): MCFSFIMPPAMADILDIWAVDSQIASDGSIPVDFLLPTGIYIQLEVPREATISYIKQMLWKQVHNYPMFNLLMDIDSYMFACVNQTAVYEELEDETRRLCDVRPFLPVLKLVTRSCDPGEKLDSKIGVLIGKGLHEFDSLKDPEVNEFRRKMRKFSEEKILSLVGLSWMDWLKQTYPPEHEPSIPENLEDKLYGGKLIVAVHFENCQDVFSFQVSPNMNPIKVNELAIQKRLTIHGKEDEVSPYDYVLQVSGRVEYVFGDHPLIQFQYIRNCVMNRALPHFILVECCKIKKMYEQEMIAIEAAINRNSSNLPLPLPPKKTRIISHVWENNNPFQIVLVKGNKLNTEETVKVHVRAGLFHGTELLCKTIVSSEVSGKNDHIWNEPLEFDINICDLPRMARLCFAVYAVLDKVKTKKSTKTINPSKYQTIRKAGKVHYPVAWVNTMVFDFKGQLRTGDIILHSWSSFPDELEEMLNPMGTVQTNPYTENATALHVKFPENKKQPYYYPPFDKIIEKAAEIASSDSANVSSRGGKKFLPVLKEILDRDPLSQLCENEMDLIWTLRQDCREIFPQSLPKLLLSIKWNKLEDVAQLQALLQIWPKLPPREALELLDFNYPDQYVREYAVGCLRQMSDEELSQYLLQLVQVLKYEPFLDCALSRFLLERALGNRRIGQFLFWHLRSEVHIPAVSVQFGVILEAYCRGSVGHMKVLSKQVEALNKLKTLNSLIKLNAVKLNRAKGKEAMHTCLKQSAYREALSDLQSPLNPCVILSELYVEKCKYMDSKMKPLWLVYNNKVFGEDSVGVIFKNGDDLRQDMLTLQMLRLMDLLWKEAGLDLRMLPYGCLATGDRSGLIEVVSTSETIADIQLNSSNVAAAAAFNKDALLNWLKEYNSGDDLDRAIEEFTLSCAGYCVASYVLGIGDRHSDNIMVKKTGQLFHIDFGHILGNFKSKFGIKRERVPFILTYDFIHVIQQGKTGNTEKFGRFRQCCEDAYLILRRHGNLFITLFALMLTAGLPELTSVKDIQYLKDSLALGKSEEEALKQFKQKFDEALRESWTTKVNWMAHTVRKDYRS
# T3 sequence (P27986 whole entry partner): as the sequence (P27986 whole entry partner) above
# hemoglobin = hemoglobin (Homo sapiens, UniProt P68871+P69905); settings: background statement; can displace Hb-bound BPG; cited from earlier work
# hemoglobin, sequence (P69905 2-142 limits assumed): as the sequence (P69905 2-142 limits assumed) above
# hemoglobin, sequence (P68871 2-147 limits assumed): as the sequence (P68871 2-147 limits assumed) above
# free hemoglobin (Hb) = target: T4, free hemoglobin (Hb) (Homo sapiens, UniProt P68871+P69905); assay: Oxygen equilibrium curve (Hemox Analyzer), P50 on free hemoglobin; type: biochemical; settings: blood matrix Hb, 100 mM compound; for P50 (Torr): effector/Hb ratio 20, pH 7.4, 37° C., n=3; for P50 increase (%): versus P50 control
# T4 construct: the cells were hemolysed by addition of 2 volumes of cold distilled water; tissue EFS-Alsace; host or cells: red blood cell concentrate
# T4 sequence (P69905 2-142 limits assumed): as the sequence (P69905 2-142 limits assumed) above
# T4 sequence (P68871 2-147 limits assumed): as the sequence (P68871 2-147 limits assumed) above
# Method: as §1
# The hemoglobin solution was prepared from red blood cells concentrate (EFS-Alsace) by washing three times with 1 volume of saline (1500×g, 10 min), the cells were hemolysed by addition of 2 volumes of cold distilled water. After centrifugation (7000×g, 30 min) for stroma removal, 5 ml of the clear hemoglobin solution were placed on a 2.5 cm×30 cm column of Sephadex G-25 equilibrated with 0.1 M sodium chloride+10^−5 M EDTA. The protein was eluted with the same solution at a rate of about 20 ml/h [Benesch, R.; Benesch, R. E. and Yu, C. I. Reciprocal binding of oxygen and diphosphoglycerate by human hemoglobin. Proc. Natl. Acad. Sci. USA (1968) 59, 526-532].
# The allosteric modulation of the effectors was measured by the change in p50, the partial pressure of oxygen for half-saturation. The pH of the compound solutions was adjusted to approximately 7.0. Oxygen equilibrium curves (OEC) were carried out with the Hemox Analyzer (TCS Scientific Co.) under the following conditions: pH 7.4, 135 mM NaCl, 5 mM KCl and 30 mM TES (N—[tris(hydroxymethyl)methyl]-2-aminoethanesulfonic acid) buffer at 37° C. The concentration of free hemoglobin was 5·10^−3 M (577 nm, ε=58.4 mM^−1 cm^−1 per tetramer) and the final concentrations of the allosteric effectors were of 1.0·10^−1 M, resulting in an effector/Hb ratio of 20.
compound,measurement,setting,value
"CCOC(=O)[C@@H]1OP(=O)([O-])OP(=O)([O-])O[C@H]1C(=O)OCC.[Na+].[Na+] [OXY3012, L-DET]",PI3 Kinase Inhibition,class I PI3K,Yes
Dibutyl-L-tartrate bisphosphate [SP1-219],P50 (Torr),[1]; 60 mM compound,30.91 ± 1.76 Torr
same,P50 increase (%),[1]; 60 mM compound,11%
same,P50 (Torr),[1]; 120 mM compound,30.77 ± 1.44 Torr
same,P50 increase (%),[1]; 120 mM compound,11%
"O=P1(O)OC2C3OP(=O)(O)OP(=O)(O)OC3C3OP(=O)(O)OP(=O)(O)OC3C2OP(=O)(O)O1 (stereo not shown) [OXY111A, Myo-ITPP]",activity against PI3Kδ,Human PI3Kδ (p110δ/p85α),showed activity
same,PI3 Kinase Inhibition,class I PI3K,Yes
same,activity against PI3Kβ,Human PI3Kβ (p110β/p85α),showed activity
"O=P(O)(O)O[C@H]1[C@H](OP(=O)(O)O)[C@@H](OP(=O)(O)O)[C@H](OP(=O)(O)O)[C@@H](OP(=O)(O)O)[C@H]1OP(=O)(O)O [Phytic acid, myo-inositol hexakisphosphate]",potency relative to BPG (fold),hemoglobin,1000 fold
"O=P(O)(O)OCC(OP(=O)(O)O)C(COP(=O)(O)O)OP(=O)(O)O (stereo not drawn) [SP1-134, meso-erythritol tetraphosphate]",P50 (Torr),[1]; 120 mM compound,30.17 ± 0.94 Torr
same,P50 increase (%),[1]; 120 mM compound,17%
same,P50 (Torr),free hemoglobin (Hb),29.40 ± 1.20 Torr
same,P50 increase (%),free hemoglobin (Hb),151%
meso-Me Galactarate [OXY3006],PI3 Kinase Inhibition,class I PI3K,Yes
L-tartrate bisphosphate [SP1-90],P50 (Torr),free hemoglobin (Hb),24.76 ± 1.31 Torr
same,P50 increase (%),free hemoglobin (Hb),127%
